# Laboratory results: US11179436B2, “Methods and compositions comprising a C-terminal Bax peptide” (University of Central Florida Research Foundation, Inc., priority 2011, dated 2021)
# How the values were obtained:
# [1] = tested on: MDA-MB-231 cells; assay: Cell death by CT20 peptide/nanoparticles and/or CDDP, with Z-VAD-fmk or Bcl-2 overexpression; assay type: cell-based; details: FIG. 6A; for effect of caspase inhibition with Z-VAD-FMK on cell death: 100 μM Z-VAD-fmk pre-treatment; for cell death / loss of membrane integrity: CT20 peptide/nanoparticles 350 pM; for effect of Bcl-2 overexpression on cell death: transient Bcl-2 transfection
# Description: MDA-MB-231 cells were transiently transfected with pcDNA-Bcl2 (or as control pEGFP (Clontech)) using the TransIT-LT1 transfection reagent (Minis). To assess transfection efficiency, cells were assayed microscopically for EGFP expression. To assess Bcl-2 expression, cells lysates were immunoblotted.
# Visualization of the uptake and effects of the fluorescent dye (DiI)-loaded nanoparticles in HCT-116, MCF-7, and MDA-MD-231 cells was observed using a 10× air objective with a numerical aperture of 0.3, using ex/em of 514/587. All cells were loaded with MitoTracker. Visualization of the HCT-116 cell lines was observed using Plan-Apochromat 63× Oil objective. MCF-7 and MDA-MB-231 images were captured using Plan-Apochromat 40× Oil objective. All time-lapse images were generated in 2D by capturing 6 time points per hour for 24 hours of the same field.
# (§1) HCT-116, MCF-7, or MDA-MB-231 cells were collected at a final concentration of 1×10^6 cells/mL and assayed using the SYTOX® AADvanced™ dead cell stain solution (Invitrogen). Cells were analyzed using the BD FACSCanto flow cytometer. SYTOX® AADvanced™ was visualized at 488 nm and emissions collected at 695 nm. Analysis of data was done using FSC Express software (DeNovo). Membrane asymmetry was assessed using the Violet Ratiometric Membrane Asymmetry Probe/Dead Cell Apoptosis Kit (Invitrogen) according to the manufacturer's protocol.
# (§2) To evaluate apoptosis, cells were pre-treated with 100 μM of the pan-caspase inhibitor Z-VAD-fmk (EMD Biosciences) or transiently transfected with Bcl-2, then treated with either CT20/nanoparticles or cisplatin (CDDP) alone or in combination as indicated in figure legends. Following treatment, cells were analyzed for cell death and membrane asymmetry.
# Whether the CT20 peptide was able to kill the breast cancer cells, MCF-7 and MDA-MB-231, was examined. […] For each sample, three different fields of view were acquired. Images are representative “snapshots” of three independent experiments Most MCF-7 cells died within 24 hours, while loss of membrane integrity was detected by 3 hours of treatment (FIG. 5B). […] Within three hours, increased membrane rupture was detected in MDA-MB-231 cells treated with COOH-nanoparticles loaded with CT20 peptide (FIG. 5D).
# To investigate the mechanism by which the CT20p peptide was inducing cell death, MDA-MB-231 cells were treated with CT20 Bax peptide/nanoparticles (350 pM). A caspase inhibitor (e.g., ZVAD-Fmk and/or CDDP) was added or Bcl-2 was overexpressed. […] The expression of Bcl-2 by transfected cells was confirmed by immunoblotting lysates prepared from cells (FIG. 10).
# [2] = tested on: MDA-MB-231 cells; assay: Membrane asymmetry with violet ratiometric probe; assay type: cell-based; details: FIG. 6B
# Description: as §1, §2
# Therefore, to determine whether the CT20p peptide induced apoptotic cell death, the amount of membrane asymmetry caused by flipping of phospholipids phospholipids in the plasma membrane using a violet ratiometric probe was determined. In FIG. 6B, dot blots show the comparison of loss of membrane integrity to changes in membrane symmetry in MDA-MB-231 cells treated with CT20p peptide and/or CDDP. […] This was minimally affected by caspase inhibition or Bcl-2 expression. […]
# [3] = Calcein release from calcein-loaded large unilamellar vesicles; assay type: biochemical; details: for maximal release of calcein upon treatment with detergent: Triton X-100 after peptide; for maximal release of calcein upon treatment with detergent / release of calcein from mitochondrial-like lipid vesicles: FIG. 1C; for release of calcein from mitochondrial-like lipid vesicles: free peptide
# Description: Calcein release from artificial membranes was measured on a JASCO 810 spectropolarimeter (Jasco Inc.) with a Peltier water cooled thermostat and a photomultiplier tube mounted at 90 degrees for fluorescence measurements. Large unilamellar vesicles (LUVs) were prepared with the following modifications: Lipids (Avanti Polar Lipids) in chloroform were mixed in the following molar ratios: 52.5% 1-palmitoyl-2-oleyl-sn-glycero-3-phosphatidylcholine (POPC), 21% 1-palmitoyl-2-oleyl-sn-glycero-3-phosphatidylethanolamine (POPE), 13% bovine liver L-α phosphatidylinositol (PI), 10% cholesterol and 3.5% 1-palmitoyl-2-oleyl-sn-glycero-3-phosphatidylglycerol (POPG). These rations mimicked the outer mitochondrial membrane. After removing chloroform and desiccating, the dried lipid film was resuspended in 50 mM HEPES, pH 7, supplemented with 110 mM NaCl and 80 mM calcein and extruded with Avanti's mini extruder (Alabaster, Ala.). External calcein was removed by gel filtration through a 1.5×50 cm Econo-Column (Bio-Rad) freshly packed with Sephadex 50 (GE Healthcare). CT20 Bax peptides were added at concentrations equivalent to those used with cells in culture. Calcein fluorescence was excited at 495 nm and emission spectra recorded between 510 and 550 nm (excitation/ emission slits: 10/3 nm). Samples were maintained at 37° C. and a final measurement taken at 24 hours. Maximum calcein release was obtained by the addition of Triton ×100 (0.1% final concentration) to calcein loaded LUVs without nanoparticles that had had been incubated at 37° C. for 24 hours after the addition of 10 μL DMSO.
# Using a commercially synthesized peptide composed of the last twenty amino acids ([…]) of the C-terminus of Bax (CT20), the ability of CT20p peptideto insert and permeabilize lipid membranes was examined. Liposomes contained phospholipids that composed the mitochondrial outer membrane and were loaded with calcein. […] In FIG. 1C, the red lines indicate maximal release of calcein with Triton X-100. The blue lines indicate treatment with DMSO and the green lines (except for control) indicate treatment with CT20 Bax peptides.
# To determine whether the CT20p peptide could directly kill cancer cells, the CT20 wild type peptide was encapsulated in polymeric nanoparticles. As the CT20p peptide is amphipathic, it can be encapsulated within the hydrophobic pockets of aliphatic polymeric nanoparticles. […] To verify that the nanoparticles would not release the CT20 peptide at neutral pH, calcein loaded liposomes were prepared.
# In FIG. 9, a calcein release assay was performed with calcein loaded lipid vesicles prepared with the composition of the mitochondrial membrane. Calcein release was measured as fluorescence. Controls were calcein release achieved with CT20p peptide alone and maximum calcein release obtained upon addition of Triton x100. A representative experiment of two independent experiments is shown. This confirmed that cargo is released from nanoparticles only by intracellular esterases or acidic pH (Santra et al., 2010).
# [4] = tested on: wild type E. coli; assay: E. coli colony formation after treatment; assay type: cell-based; details: FIG. 15
# Description: This was determined by plating the E. coli after treatment then counting the resulting colonies after 24 hour incubation. […] The bacterial culture media was plated after 24 hours of treatment/exposure to Ct20p or the control conditions, a peptide (SCR) or no peptide and addition of DMSO, and the resulting colonies were counted. […] A conclusion was that the inhibition of growth seen in FIG. 14 was due to the killing or lysing of bacteria.
# [5] = tested on: MDA-MB-231 cells implanted in the flanks of nude mice; assay: Murine tumor experiment, intratumoral injection, tumor volume by ultrasound; assay type: in vivo; details: for tumor growth / change in tumor volume: intratumoral injections over a 4-5 day period, versus empty nanoparticles or PBS
# Description: One to two million MBA-MD-231 cells were harvested from culture and injected subcutaneously into the right and left flanks of 16 female nude mice (nu/nu, Charles River). After 2-3 weeks, tumor volume and growth was assessed by ultrasound (VisualSonics Vevo 2100). Mice with tumors were injected intratumorally with PBS, unloaded polymeric nanoparticles, or CT20 Bax peptide-loaded polymeric nanoparticles at 4× the concentrations described above. Injections were performed twice over a 4-5 day period. Mice were observed 0-5 days post-treatments and tumor volume assessed by ultrasound.
# MDA-MB-231 cells were implanted in the flanks of nude mice. Initial growth of tumors was detected after 2 weeks. At this time tumors were measured, and over a 4-5 day period, the mice were treated with intratumoral injections of PBS, unloaded or empty nanoparticles (NP), or CT20 peptide/nanoparticles.
# FIG. 6D provides representative ultrasound image of changes in tumor volume induced by treatment on days 0, 2 and 4 with the unloaded or CT20 peptide loaded nanoparticles. These findings indicate reduced uptake or effectiveness in non-cancerous cells.
# [6] = Pore formation in zwitterionic and anionic membranes, kinetics of calcein release and structural studies; assay type: biochemical; details: calcein transport
# Description: An analysis of formation of relatively large membrane pores by Bax C-terminal 20-reside peptide (CT20p) and two mutants where the two native lysines are replaced either with glutamates (charge reversal mutation) or leucines (charge neutralization mutation) were examined. […] The kinetics of calcein release at various concentrations of the three peptides allowed identification of the second-order rate constants of pore formation within the membrane, the affinity constants of peptide units composing the pore, and the oligomeric pore structure. Nucleation of the pore is shown to be relatively slow and involve 2-3 peptide molecules, followed by a faster process of assembly of the pore that includes up to eight peptide molecules. Structural studies led to a model of an octameric transmembrane pore with an inner diameter of 20-22 A. Analysis of the kinetics of calcein release from lipid vesicles allows determination of rate constants of pore formation, peptide-peptide affinities within the membrane, the oligomeric state of transmembrane pores, and the role of the lysine residues. […]
# Additionally, the pore structure was analyzed by polarized Fourier transform infrared, circular dichroism, and fluorescence experiments on the peptides reconstituted in phospholipid membranes. […]
# [7] = tested on: wild type E. coli; assay: E. coli growth in broth by optical density; assay type: cell-based; details: FIG. 14
# Description: Attributes are shared among the peptides. […] The E. coli were grown in the presence of a peptide, concentrations of CT20p peptide or for control, SCR peptide, or no peptide for a control, in standard conditions for growing bacteria in broth media.
Compound,effect of caspase inhibition with Z-VAD-FMK on cell death [1],cell death / loss of membrane integrity [1],effect of Bcl-2 overexpression on cell death [1],changes in membrane symmetry [2],maximal release of calcein upon treatment with detergent [3],release of calcein from mitochondrial-like lipid vesicles [3],nature of effect from colony counts ([4]; 24 hours of treatment),"minimum inhibitory concentration (MiC) ([4]; plated after treatment, colonies counted after 24 hour incubation)",tumor growth / change in tumor volume [5],tumor growth / change in tumor volume ([5]; listed as CT20 peptide),"damage of normal tissue surrounding the tumors ([5]; ultrasound, FIG. 6D)","release of calcein from liposomes ([3]; 350 pM, pH 7, FIG. 9)",pore formation in lipid membranes [6],pore formation in lipid membranes ([6]; listed as wild-type peptide),time at which the growth curve reached a plateau [7]
"[NH2][Pt]([NH2])([Cl])[Cl] [CDDP, cisplatin, reference compound]",inhibited by ZVAD-FMK,induced cell death,impaired death,induced significant alterations in the membrane symmetry,–,–,–,–,–,–,–,–,–,–,–
VTIFVAGVLTASLTIWEEMG [CT20-EE],–,–,–,–,did not occur,did not cause calcein release,–,–,–,–,–,–,–,–,–
VTIFVAGVLTASLTIWKKMG [CT20p peptide],largely unaffected,caused significant loss of membrane integrity,did not impair the death activity,–,impaired the maximal release of calcein,caused the release of calcein,bactericidal,25 mg,tumor regression,prevented tumor growth,little to no observable damage of normal tissue,did induce the release of calcein,efficient at forming pores,most efficient pores,13 h
VTIFVAGVLTASLTIWLLMG [CT20-LL],–,–,–,–,impaired the maximal release of calcein,did not cause calcein release,–,–,–,–,–,–,–,–,–
